Data: patent US8614218B2, “Fused bicyclic pyrimidines” (Bayer Intellectual Property GmbH, priority 2007, dated 2013)

Tests used:
Assay type in all cases: cell-based
phospho-Akt (Ser473) = assay: Cellular PI3K/Akt pathway assay (phospho-Akt ELISA); settings: Homo sapiens, MCF7 cells, β-Heregulin stimulated, 48 h incubation
From the text: Cellular PI3K/Akt Pathway Assay
In order to study the cellular activity of the compounds according to the present invention, an Enzyme Linked Immunosorbent Assay (ELISA)-based assay has been used specific phospho-AKT. The assay is based on a Sandwich ELISA kit (PathScan™ Phospho-Akt1 (Ser473); Cell Signaling, USA; #7160). The ELISA Kit detects endogenous levels of phosphorylated Akt protein. A phospho-Akt (Ser473) antibody (Cell Signaling, USA; #9271) has been coated onto the microwells. After incubation with cell lysates, the coated antibody captures the phosphorylated Akt protein. Following extensive washing, Akt1 monoclonal antibody (Cell Signaling, USA; #2967) is added to detect the captured phospho-Akt1 protein. HRP-linked anti-mouse antibody (HRP: horseradish peroxidase; Cell Signaling, USA; #7076) is then used to recognize the bound detection antibody. HRP substrate (=3,3′,5,5′-tetramethylbenzidine (TMB); Cell Signaling, USA; #7160) is added to develop colour. The magnitude of optical density for this developed color is proportional to the quantity of phosphorylated Akt protein.
MCF7 cells (ATCC HTB-22) are seeded into 96 well fate bottom plates at a density of 10000 cells/well. 24 hours after seeding, the cells are serum starved using low-serum medium (IMEM media including 0.1% charcoal treated FCS (FCS: fetal calf serum)). After 24 hours 1 μl each of the compound dilutions (test compounds were dissolved as 10 mM solutions in dimethylsulfoxide (DMSO) and subsequently diluted) are added into each well of the 96 well plates and incubated for 48 h at 37° C. in a humidified atmosphere containing 5% CO2. To stimulate Akt phosphorylation, β-Heregulin (20 ng/ml β-HRG) is added in parallel to the compounds. Wells containing unstimulated control cells (no β-Heregulin stimulation) are incubated with or without the diluted compound. Wells containing untreated control cells (no compound) are filled with medium containing 0.5% v:v DMSO and are or are not stimulated with β-Heregulin.
Cells are harvested and lysed with brief sonification in 1× cell lysis buffer (20 mM Tris (pH7.5), 150 mM NaCl, 1 mM ethylene diaminetetraacetate (EDTA), 1 mM ethylene glycolbis(2-aminoethyl)-N,N,N′,N′-tetraacetic acid (EGTA), 1 vol % Triton X-100, 2.5 mM sodium pyrophosphate, 1 mM β-glycerolphosphate, 1 mM Na3VO4, 1 μg/ml leupeptin). The lysate is centrifuged for 10 min. at 4° C. and the supernatant is transferred to a new tube. 100 μl of sample diluent (0.1 vol % Tween-20, 0.1 vol % sodium azide in phosphate buffered saline (PBS)) are added to a microcentrifuge tube and 100 μl of cell lysate are transferred into the tube and vortexed. 100 μl of each diluted cell lysate are added to the appropriate ELISA well, and incubated overnight at 4° C. The plates are washed 4 times with 1× wash buffer (1 vol % tween-20, 0.33 vol % thymol, in PBS). Next 100 μl of detection antibody (Akt1 (2H10) monoclonal detection antibody; Cell Signaling, USA; #2967) are added to each well and incubation continued for 1 h at 37° C. The washing procedure is repeated between each step. 100 μl of secondary antibody (anti-mouse IgG HRP-linked antibody; Cell Signaling, USA; #7076) are added to each well and incubated for 30 min. at 37° C. Than, 100 μl of TMB substrate (0.05% 3,3′,5,5′ tetramethylbenzidine, 0.1% hydrogen peroxide, complex polypeptides in a buffered solution; Cell Signaling, USA; #7160) are added to each well and incubated for 30 min. at 25° C. Finally 100 μl of STOP solution (0.05 vol % α and β unsaturated carbonyl compound) are added to each well and the plate are shaked gently. The absorbance is measured at λ=450 nm (Wallac Victor2; Perkin Elmer, USA) within 30 min. after adding the STOP solution. The analysis of the data is performed using a statistical program (Excel; Microsoft, USA). Preferred compounds show an inhibitory activity towards Akt phosphorylation below 10 μM.

A549 cells = assay: Cellular proliferation/cytotoxicity assay (Alamar Blue), A549; settings: Homo sapiens, 72 h, Alamar Blue (Resazurin), read-out: Anti-proliterative/Cytotoxic activity (A549 cells)
How it was run: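 OvCAR3 (10000 cells/well) or A549 (2000 cells/well) were dosed 24 h after seeding and exposed for 72 h at 37 °C, 5% CO2, in duplicate or more. Resazurin was added for 4 h and fluorescence read at 544/590 nm. Viability is relative to untreated 0.5% DMSO controls, with IC50 by non-linear regression.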

OvCAR3 cells = assay: Cellular proliferation/cytotoxicity assay (Alamar Blue), OvCAR3; settings: Homo sapiens, OVCAR-3, 72 h, Alamar Blue (Resazurin), read-out: Anti-proliferative/Cytotoxic activity (OvCAR3 cells)
Procedure: Cellular Proliferation/Cytotoxicity Assay:
The anti-proliferative activity of the compounds as described herein, is evaluated using the OvCAR3, HCT116 and A549 cell lines and the Alamar Blue (Resazurin) cell viability assay (O'Brien et al. Eur J Biochem 267, 5421-5426, 2000). Resazurin is reduced to the fluorescent resorufin by cellular dehydrogenase activity, correlating with viable, proliferating cells. Test compounds are dissolved as 10 mM solutions in DMSO and subsequently diluted. Cells like HCT116 or A549 cells were seeded into 96 well flat bottom plates at a density of 10000 cells/well (OvCAR3 cells), 1000 cells/well (HCT116 cells) or 2000 cells/well (A549 cells) in a volume of 200 μl/well. 24 hours after seeding, 1 μl each of the compound dilutions are added into each well of the 96 well plates. Each compound dilution is tested as at least as duplicates. Wells containing untreated control cells were filled with 200 μl DMEM (Dulbecco's Modified Eagle Medium) containing 0.5 vol % v:v DMSO. The cells are then incubated with the substances for 72 h at 37° C. in a humidified atmosphere containing 5 vol % CO2. To determine the viability of the cells, 20 μl of a Resazurin solution (90 mg/l) are added. After 4 h incubation at 37° C., the fluorescence is measured by extinction at λ=544 nm and an emission of λ=590 nm (Wallac Victor2; Perkin Elmer, USA). For the calculation of the cell viability, the emission value from untreated cells is set as 100% viability and the fluorescence intensity of treated cells are set in relation to the values of untreated cells. Viabilities are expressed as % values. The corresponding IC50 values of the compounds for cytotoxic activity are determined from the concentration-effect curves by means of non-linear regression. The analysis of the data is performed using a biostatistical program (GraphPad Prism, USA).
Representative IC50 values for anti-proliferative/cytotoxic potency determined in the aforementioned assay follow from the following table, in which the numbers of the compound correspond to the numbers of the examples.

IC50 (phospho-Akt (Ser473)) [µM]	SMILES	IC50 (A549 cells) [µM]	IC50 (OvCAR3 cells) [µM]
< 1	Cc1cc2nc(-c3ccc(CN4CCC(c5n[nH]c(-c6ccccn6)n5)CC4)cc3)c(-c3ccccc3)c(C)n2n1 [Example 49, 2,7-Dimethyl-6-phenyl-5-(4-{[4-(5-pyridin-2-yl-1H-1,2,4-triazol-3-yl)piperidin-1-yl]methyl}phenyl)pyrazolo[1,5-a]pyrimidine]	< 10	–
< 1	Cc1nc2nc(-c3ccc(CN4CCC(c5n[nH]c(-c6ccccn6)n5)CC4)cc3)c(-c3ccccc3)c(C)n2n1 [Example 39, 2,7-Dimethyl-6-phenyl-5-(4-{[4-(5-pyridin-2-yl-1H-1,2,4-triazol-3-yl)piperidin-1-yl]methyl}phenyl)[1,2,4]triazolo[1,5-a]pyrimidine]	< 10	–
< 1	FC(F)(F)c1cn2cc(-c3ccccc3)c(-c3ccc(CN4CCC(c5n[nH]c(-c6ccccn6)n5)CC4)cc3)nc2n1 [Example 26, 6-phenyl-7-(4-{[4-(5-pyridin-2-yl-1H-1,2,4-triazol-3-yl)piperidin-1-yl]methyl}phenyl)-2-(trifluoromethyl)imidazo[1,2-a]pyrimidine]	< 10	–
–	c1ccc(-c2cn3nc(C4CCC4)nc3nc2-c2ccc(CN3CCC(c4n[nH]c(-c5ccccn5)n4)CC3)cc2)cc1 [Example 7, 2-cyclobutyl-6-phenyl-5-(4-{[4-(5-pyridin-2-yl-1,2,4-triazol-3-yl)piperidin-1-yl]methyl}phenyl)[1,2,4]triazolo[1,5-a]pyrimidine]	> 10	< 10
–	c1ccc(-c2cn3nccc3nc2-c2ccc(CN3CCC(c4n[nH]c(-c5ccccn5)n4)CC3)cc2)cc1 [Example 19, 6-phenyl-5-(4-{[4-(5-pyridin-2-yl-1,2,4-triazol-3-yl)piperidin-1-yl]methyl}phenyl)pyrazolo[1,5-a]pyrimidine]	> 10	< 10
< 1	Cc1nc2nc(-c3ccc(CN4CCC(c5n[nH]c(-c6ncccn6)n5)CC4)cc3)c(-c3ccccc3)cn2n1 [Example 45, 2-Methyl-6-phenyl-5-(4-{[4-(5-pyrimidin-2-yl-1H-1,2,4-triazol-3-yl)piperidin-1-yl]methyl}phenyl)[1,2,4]triazolo[1,5-a]pyrimidine]	> 10	–
< 1	c1ccc(-c2nc(C3CCN(Cc4ccc(-c5nc6ccnn6cc5-c5ccsc5)cc4)CC3)n[nH]2)nc1 [Example 50, 5-(4-{[4-(5-Pyridin-2-yl-1H-1,2,4-triazol-3-yl)piperidin-1-yl]methyl}phenyl)-6-(3-thienyl)pyrazolo[1,5-a]pyrimidine]	< 10	–
–	c1ccc(-c2cn3ccnc3nc2-c2ccc(CN3CCC(n4cnc(-c5ccccn5)c4)CC3)cc2)cc1 [Example 20, 6-phenyl-7-(4-{[4-(4-pyridin-2-yl-imidazol-1-yl)piperidin-1-yl]methyl}phenyl)imidazo[1,2-a]pyrimidine]	> 10	< 10
–	Brc1cnc2nc(-c3ccc(CN4CCC(c5n[nH]c(-c6ccccn6)n5)CC4)cc3)c(-c3ccccc3)cn12 [Example 11, 3-bromo-6-phenyl-7-(4-{[4-(5-pyridin-2-yl-1,2,4-triazol-3-yl)piperidin-1-yl]methyl}phenyl)imidazo[1,2-a]pyrimidine]	> 10	< 10
–	c1ccc(-c2cn3ccnc3nc2-c2ccc(CN3CCC(c4nc(-c5ccccn5)n[nH]4)CC3)cc2)cc1 [Example 1, 6-phenyl-7-(4-{[4-(3-pyridin-2-yl-1,2,4-triazol-5-yl)piperidin-1-yl]methyl}phenyl)imidazo[1,2-a]pyrimidine]	> 10	< 10
–	c1ccc(-c2cn3ccnc3nc2-c2ccc(CN3CCC(c4n[nH]c(-c5cnccn5)n4)CC3)cc2)cc1 [Example 21, 6-phenyl-7-(4-{[4-(5-pyrazin-2-yl-1,2,4-triazol-3-yl)piperidin-1-yl]methyl}phenyl)imidazo[1,2-a]pyrimidine]	> 10	< 10
